Test results taken from ChEMBL document CHEMBL4411307, “N,N'-diaryl-bishydrazones in a biphenyl platform: Broad spectrum antifungal agents” (Eur J Med Chem, 2019).
≈ marks a conversion by molar mass, not a printed value. Calls of active or inactive are those of the source. The calls are words filed in the database; no cut-off is given here.

What was measured:
[1] = test system: Nakaseomyces glabratus; assay: Antifungal activity against Candida glabrata ATCC 2001 measured after 48 hrs by CLSI M27-A3 protocol based method; type: functional; conditions: CBS 138, 48 h
[2] = test system: Candida albicans; assay: Antifungal activity against fluconazole/ITC-susceptible Candida albicans ATCC MYA-2310 measured after 48 hrs by CLSI M27-A3 protocol based method; type: functional; conditions: ATCC MYA-2310, 48 h
[3] = Selectivity index, ratio of compound concentration showing <25% hemolysis in mouse RBC to MIC for fluconazole/ITC-resistant Candida albicans ATCC MYA-1003; type: toxicity; conditions: mouse red blood cells (RBC), read-out: Selectivity Index
[4] = Selectivity index, ratio of CC50 for human A549 cells to MIC for fluconazole/ITC-susceptible Candida albicans ATCC MYA-2876; type: toxicity; conditions: read-out: Selectivity Index
[5] = Selectivity index, ratio of CC50 for human A549 cells to MIC for Aspergillus nidulans ATCC 38163; type: toxicity; conditions: read-out: Selectivity Index
[6] = Selectivity index, ratio of compound concentration showing <25% hemolysis in mouse RBC to MIC for fluconazole/ITC-resistant Candida albicans ATCC 90819; type: toxicity; conditions: mouse red blood cells (RBC), read-out: Selectivity Index
[7] = Selectivity index, ratio of CC50 for human A549 cells to MIC for fluconazole/ITC-resistant Candida albicans ATCC MYA-1003; type: toxicity; conditions: read-out: Selectivity Index
[8] = Selectivity index, ratio of compound concentration showing <25% hemolysis in mouse RBC to MIC for Candida parapsilosis ATCC 22019; type: toxicity; conditions: mouse red blood cells (RBC), read-out: Selectivity Index
[9] = Selectivity index, ratio of CC50 for human A549 cells to MIC for Candida parapsilosis ATCC 22019; type: toxicity; conditions: read-out: Selectivity Index
[10] = Selectivity index, ratio of CC50 for human A549 cells to MIC for fluconazole/ITC-resistant Candida albicans ATCC 64124; type: toxicity; conditions: read-out: Selectivity Index
[11] = test system: Candida albicans; assay: Antifungal activity against fluconazole/ITC-resistant Candida albicans ATCC 90819 measured after 48 hrs by CLSI M27-A3 protocol based method; type: functional; conditions: ATCC 90819, 48 h
[12] = Hemolytic activity in mouse RBC at […] ug/ml after 1 hr relative to control; type: ADME, cell-based, Erythrocyte; conditions: red blood cells (erythrocytes), read-out: Activity
[13] = Selectivity index, ratio of compound concentration showing <25% hemolysis in mouse RBC to MIC for fluconazole/ITC-susceptible Candida albicans ATCC MYA-2876; type: toxicity; conditions: mouse red blood cells (RBC), read-out: Selectivity Index
[14] = test system: BEAS-2B; assay: Cytotoxicity against human BEAS2B cells after 24 hrs by resazurin based assay; type: cell-based
[15] = Selectivity index, ratio of CC50 for human A549 cells to MIC for fluconazole/ITC-resistant Candida albicans ATCC MYA-1237; type: toxicity; conditions: read-out: Selectivity Index
[16] = test system: Enterococcus; assay: Antibacterial activity against vancomycin-resistant Enterococcus; type: functional, organism-based
[17] = test system: Candida albicans; assay: Antifungal activity against fluconazole/ITC-resistant Candida albicans ATCC 10231 measured after 48 hrs by CLSI M27-A3 protocol based method; type: functional; conditions: ATCC 10231, 48 h
[18] = Selectivity index, ratio of compound concentration showing <25% hemolysis in mouse RBC to MIC for Aspergillus nidulans ATCC 38163; type: toxicity; conditions: mouse red blood cells (RBC), read-out: Selectivity Index
[19] = test system: Aspergillus terreus; assay: Antifungal activity against Aspergillus terreus ATCC MYA-3633 measured after 48 hrs by CLSI M38-A2 protocol based method; type: functional; conditions: ATCC MYA-3633, 48 h
[20] = Selectivity index, ratio of CC50 for human A549 cells to MIC for Aspergillus flavus ATCC MYA-3631; type: toxicity; conditions: read-out: Selectivity Index
[21] = test system: Staphylococcus aureus; assay: Antibacterial activity against methicillin-resistant Staphylococcus aureus; type: functional, organism-based
[22] = Selectivity index, ratio of CC50 for human A549 cells to MIC for Candida glabrata ATCC 2001; type: toxicity; conditions: read-out: Selectivity Index
[23] = test system: Candida albicans; assay: Antifungal activity against fluconazole/ITC-susceptible Candida albicans ATCC MYA-2876 measured after 48 hrs by CLSI M27-A3 protocol based method; type: functional; conditions: ATCC MYA-2876, 48 h
[24] = test system: Candida albicans; assay: Antifungal activity against fluconazole/ITC-resistant Candida albicans ATCC MYA-1237 measured after 48 hrs by CLSI M27-A3 protocol based method; type: functional; conditions: ATCC MYA-1237, 48 h
[25] = test system: Candida albicans; assay: Antifungal activity against fluconazole/ITC-resistant Candida albicans ATCC 64124 measured after 48 hrs by CLSI M27-A3 protocol based method; type: functional; conditions: ATCC 64124, 48 h
[26] = test system: Pichia kudriavzevii; assay: Antifungal activity against Candida krusei ATCC 6258 measured after 48 hrs by CLSI M27-A3 protocol based method; type: functional; conditions: ATCC 6258, 48 h
[27] = Selectivity index, ratio of CC50 for human A549 cells to MIC for Aspergillus terreus ATCC MYA-3633; type: toxicity; conditions: read-out: Selectivity Index
[28] = Hemolytic activity in mouse RBC at 62.5 ug/ml after 1 hr relative to control; type: ADME, cell-based, Erythrocyte; conditions: red blood cells (erythrocytes), read-out: Activity
[29] = Selectivity index, ratio of CC50 for human A549 cells to MIC for Candida krusei ATCC 6258; type: toxicity; conditions: read-out: Selectivity Index
[30] = Selectivity index, ratio of compound concentration showing <25% hemolysis in mouse RBC to MIC for Aspergillus terreus ATCC MYA-3633; type: toxicity; conditions: mouse red blood cells (RBC), read-out: Selectivity Index
[31] = Selectivity index, ratio of compound concentration showing <25% hemolysis in mouse RBC to MIC for fluconazole/ITC-resistant Candida albicans ATCC MYA-1237; type: toxicity; conditions: mouse red blood cells (RBC), read-out: Selectivity Index
[32] = Selectivity index, ratio of compound concentration showing <25% hemolysis in mouse RBC to MIC for fluconazole/ITC-resistant Candida albicans ATCC 64124; type: toxicity; conditions: mouse red blood cells (RBC), read-out: Selectivity Index
[33] = Hemolytic activity in mouse RBC at 3.9 ug/ml after 1 hr relative to control; type: ADME, cell-based, Erythrocyte; conditions: red blood cells (erythrocytes), read-out: Activity
[34] = Selectivity index, ratio of CC50 for human A549 cells to MIC for fluconazole/ITC-susceptible Candida albicans ATCC MYA-2310; type: toxicity; conditions: read-out: Selectivity Index
[35] = Hemolytic activity in mouse RBC at 31.3 ug/ml after 1 hr relative to control; type: ADME, cell-based, Erythrocyte; conditions: red blood cells (erythrocytes), read-out: Activity
[36] = Selectivity index, ratio of CC50 for human A549 cells to MIC for fluconazole/ITC-resistant Candida albicans ATCC 10231; type: toxicity; conditions: read-out: Selectivity Index
[37] = test system: Candida parapsilosis; assay: Antifungal activity against Candida parapsilosis ATCC 22019 measured after 48 hrs by CLSI M27-A3 protocol based method; type: functional; conditions: Lodderomyces parapsilosis, ATCC 22019, 48 h
[38] = Hemolytic activity in mouse RBC at 7.8 ug/ml after 1 hr relative to control; type: ADME, cell-based, Erythrocyte; conditions: red blood cells (erythrocytes), read-out: Activity
[39] = test system: Listeria monocytogenes; assay: Antibacterial activity against Listeria monocytogenes; type: functional, organism-based
[40] = Selectivity index, ratio of compound concentration showing <25% hemolysis in mouse RBC to MIC for fluconazole/ITC-susceptible Candida albicans ATCC MYA-2310; type: toxicity; conditions: mouse red blood cells (RBC), read-out: Selectivity Index
[41] = test system: A549; assay: Cytotoxicity against human A549 cells after 24 hrs by resazurin based assay; type: cell-based; conditions: a549, 24 h
[42] = Selectivity index, ratio of compound concentration showing <25% hemolysis in mouse RBC to MIC for Aspergillus flavus ATCC MYA-3631; type: toxicity; conditions: mouse red blood cells (RBC), read-out: Selectivity Index
[43] = test system: Aspergillus flavus; assay: Antifungal activity against Aspergillus flavus ATCC MYA-3631 measured after 48 hrs by CLSI M38-A2 protocol based method; type: functional; conditions: ATCC MYA-3631, 48 h
[44] = Selectivity index, ratio of compound concentration showing <25% hemolysis in mouse RBC to MIC for Candida glabrata ATCC 2001; type: toxicity; conditions: mouse red blood cells (RBC), read-out: Selectivity Index
[45] = Hemolytic activity in mouse RBC at […] after 1 hr relative to control; type: ADME, cell-based, Erythrocyte; conditions: red blood cells (erythrocytes), read-out: Activity; further: tested at 0.48 µg/mL
[46] = Hemolytic activity in mouse RBC at 1.95 ug/ml after 1 hr relative to control; type: ADME, cell-based, Erythrocyte; conditions: red blood cells (erythrocytes), read-out: Activity
[47] = test system: Aspergillus nidulans; assay: Antifungal activity against Aspergillus nidulans ATCC 38163 measured after 48 hrs by CLSI M38-A2 protocol based method; type: functional; conditions: ATCC 38163, 48 h
[48] = Selectivity index, ratio of compound concentration showing <25% hemolysis in mouse RBC to MIC for fluconazole/ITC-resistant Candida albicans ATCC 10231; type: toxicity; conditions: mouse red blood cells (RBC), read-out: Selectivity Index
[49] = test system: Candida albicans; assay: Antifungal activity against fluconazole/ITC-resistant Candida albicans ATCC MYA-1003 measured after 48 hrs by CLSI M27-A3 protocol based method; type: functional; conditions: ATCC MYA-1003, 48 h
[50] = Selectivity index, ratio of CC50 for human A549 cells to MIC for fluconazole/ITC-resistant Candida albicans ATCC 90819; type: toxicity; conditions: read-out: Selectivity Index
[51] = Selectivity index, ratio of compound concentration showing <25% hemolysis in mouse RBC to MIC for Candida krusei ATCC 6258; type: toxicity; conditions: mouse red blood cells (RBC), read-out: Selectivity Index

Fc1ccc(N/N=C/c2ccc(-c3cccc(/C=N/Nc4ccc(F)cc4F)c3)cc2)c(F)c1
MIC [1]: 15.6 mg/L (≈ 33.7 µM) | MIC [2]: 15.6 mg/L (≈ 33.7 µM) | selectivity ratio [3]: 1 to 32 | selectivity ratio [4]: 1.1 | selectivity ratio [5]: 2.1 | selectivity ratio [6]: 1 to 32 | selectivity ratio [7]: 2.1 | selectivity ratio [8]: 1 to 32 | selectivity ratio [9]: 0.5 | selectivity ratio [10]: 2.1 | MIC [11]: 15.6 mg/L (≈ 33.7 µM) | hemolysis at 1 h, 15.6 ug/ml ([12]; at 15.6 µg/mL): 14.6% | hemolysis at 1 h, 0.975 ug/ml [12]: 0% | selectivity ratio [13]: 1 to 32 | CC50 [14]: 16.9 mg/L (≈ 36.5 µM) | selectivity ratio [15]: 2.1 | Activity [16]: inactive | MIC [17]: 3.9 mg/L (≈ 8.43 µM) | selectivity ratio [18]: 1 to 32 | MIC [19]: 31.3 mg/L (≈ 67.7 µM) | selectivity ratio [20]: 2.1 | Activity [21]: inactive | selectivity ratio [22]: 1.1 | MIC [23]: 15.6 mg/L (≈ 33.7 µM) | MIC [24]: 7.8 mg/L (≈ 16.9 µM) | MIC [25]: 7.8 mg/L (≈ 16.9 µM) | MIC [26]: 1.95 mg/L (≈ 4.22 µM) | selectivity ratio [27]: 0.5 | hemolysis at 1 h, 62.5 ug/ml [28]: 23.5% | selectivity ratio [29]: 8.4 | selectivity ratio [30]: 1 to 32 | selectivity ratio [31]: 1 to 32 | selectivity ratio [32]: 1 to 32 | hemolysis at 1 h, 3.9 ug/ml [33]: 4.2% | selectivity ratio [34]: 1.1 | hemolysis at 1 h, 31.3 ug/ml [35]: 14.6% | selectivity ratio [36]: 4.2 | MIC [37]: 31.3 mg/L (≈ 67.7 µM) | hemolysis at 1 h, 7.8 ug/ml [38]: 8.6% | Activity [39]: inactive | selectivity ratio [40]: 1 to 32 | CC50 [41]: 16.4 mg/L (≈ 35.5 µM) | selectivity ratio [42]: 1 to 32 | MIC [43]: 7.8 mg/L (≈ 16.9 µM) | selectivity ratio [44]: 1 to 32 | hemolysis at 1 h, […] [45]: 1.6% | hemolysis at 1 h, 1.95 ug/ml [46]: 4.5% | MIC [47]: 7.8 mg/L (≈ 16.9 µM) | selectivity ratio [48]: 1 to 32 | MIC [49]: 7.8 mg/L (≈ 16.9 µM) | selectivity ratio [50]: 1.1 | selectivity ratio [51]: 1 to 32
